Laboratory results published in US8911935B2, “Mitochondria and human immunodefiency virus type 1” (New York University, priority 2011, dated 2014).
“Also recorded” adds a separate entry of the source.

Key:
[1] = tested on: HIV-1; assay: Live-cell fluorescence imaging of cell-to-cell transmission of HIV-1, pre-treated H9 cells co-cultured with GFP-MT2 target cells; assay type: cell-based, Human immunodeficiency virus type 1 (HIV-1); conditions: FIG. 4C-3; for cell-to-cell spread of HIV-1, VS and syncytia formation: H9 cells pre-treated 3 hours (CCCP 10 μM, antimycin A 2.4 μM, oligomycin 2.4 μM), washed, co-cultured with GFP-MT2
Method: (§1) HIV-1 infected H9 cells were fluorescently labeled with MitoTracker Red CMXRos to stain mitochondria red, and with Hoechst 33342 to stain DNA blue according to the manufacturer's protocols (Molecular Probes). Uninfected MT2 target cells were labeled green by the expression of green fluorescent protein (GFP-MT2). Cells were co-cultured and imaged on a glass bottom 96-well plate (MatTek, Ashland, Mass.) in RPMI 1640 medium containing 10% heat-inactivated fetal calf serum, 2 mM L-glutamine, 100 U/ml penicillin and 100 μg/ml streptomycin (complete medium). Labeled HIV-1 infected H9 cells were washed 3 times with complete medium to remove any residual free virus and free dye. Washed cells were suspended in complete medium at a density of 5×10^5 cells/ml. 100 μl of this cell suspension, containing 50,000 cells, were plated into each well. 100,000 GFP-MT2 target cells in 100 μl were then added to each well, to give a ratio of 1:2 of infected to uninfected target cells.
Live-cell real-time images and time lapse movies were collected at 37° C., 5% CO2 using a microplate incubator, with precision temperature, humidity and CO2 controls, mounted on the microscope stage of a Leica inverted microscope equipped with an automatic power stage and an AF6000 camera. Phase contrast, blue (Hoechst 33342), green (GFP), and red (MitoTracker) channels were used for imaging. Images were collected at 0.5 min or 5 min intervals for 18-24 hours. Image analysis was performed using LCSAF software.

[2] = tested on: HIV-1 infected H9 cells; assay: Cell death of HIV-1 infected H9 cells on pre-treatment with mitochondrial inhibitors; conditions: pre-treatment for 3 hours; CCCP 10 μM, antimycin A 2.4 μM, oligomycin 2.4 μM
Method: To verify that functional mitochondria are essential for cell-to-cell transmission of the virus, we pre-treated HIV-1 infected H9 cells with mitochondrial inhibitors including carbonyl cyanide m-chlorophenylhydrazone (CCCP, 10 μM), antimycin A (2.4 μM), and oligomycin (2.4 μM) for 3 hours [14].

[3] = tested on: HIV-1; assay: Syncytia formation assay in co-cultures of HIV-1 infected H9 cells with MT2 target cells; assay type: cell-based, Human immunodeficiency virus type 1 (HIV-1); conditions: Human immunodeficiency virus 1, H9, 3 h, HIV-infected H9 cells treated with 10 μM CCCP for 3 hours, then co-cultured with MT2 target cells
Method: as §1, with “100 μl of this cell suspension, containing 50,000 cells, were plated into each well. 100,000 GFP-MT2 target cells in 100 μl were then added to each well, to give a ratio of 1:2 of infected to uninfected target cells.” left out
Acute HIV infection of the target cells as a result of cell-to-cell transmission of the virus was measured by syncytia formation assay. Focal syncytium formation was scored under an inverted microscope.
(§2) For quantitation of syncytial formation and HIV p24 production, data are means±standard deviations of four independent experiments. […]
(§3) To confirm that mitochondria from HIV infected cells serve as viral reservoirs and carry the virus into the uninfected target cells, the present inventors quantitated viral infection and replication in the co-cultures by syncytia formation and viral antigen p24 production. […]

[4] = tested on: HIV-1 core protein p24; assay: HIV-1 p24 assay (ELISA) in co-culture supernatants; assay type: cell-based, Human immunodeficiency virus type 1 (HIV-1); conditions: HIV-infected H9 cells treated with CCCP, co-cultured with MT2 target cells; supernatant
Method: as §1, with “cells. […]” for “cells.”
as §2, §3

[5] = tested on: human pancreatic cancer PANC-1 cells; conditions: glucose-deprived conditions; cited from earlier work

| Molecule | cell-to-cell spread of HIV-1, VS and syncytia formation [1] | cell death [2] | inhibition at 10 µM [3] [%] | reduction of p24 expression [4] | syncytia formation in fluorescent images ([1]; CCCP-treated HIV-1 infected H9 cells co-cultured with GFP-MT2 target cells) | cytotoxicity [5] |
| --- | --- | --- | --- | --- | --- | --- |
| CC[C@H]1/C=C/C=C/C[C@@H](C)[C@H](O)[C@@](C)(O)C(=O)[C@@H](C)[C@H](O)[C@@H](C)C(=O)[C@@H](C)[C@H](O)[C@@H](C)/C=C/C(=O)O[C@@H]2[C@H](C)[C@H](CC1)O[C@]1(CC[C@H](C)[C@H](C[C@@H](C)O)O1)[C@H]2C [oligomycin] | reduced cell-to-cell spread of HIV-1 and decreased VS and syncytia formation | no cell death |  |  |  |  |
| antimycin A | reduced cell-to-cell spread of HIV-1 and decreased VS and syncytia formation | no cell death |  |  |  |  |
| N#CC(C#N)=NNc1cccc(Cl)c1 [CCCP, carbonyl cyanide m-chlorophenylhydrazone] | reduced cell-to-cell spread of HIV-1 and decreased VS and syncytia formation | no cell death | ~95 | about 95% | inhibits syncytia formation; also recorded: blocked syncytia formation |  |
| efrapeptin F |  |  |  |  |  | preferential cytotoxicity |
